Here are results for twelve compounds from article PMC6930638, “The Masked Polar Group Incorporation (MPGI) Strategy in Drug Design: Effects of Nitrogen Substitutions on Combretastatin and Isocombretastatin Tubulin Inhibitors” (Molecules, 2019).

Converted amounts (≈) assume the structure as drawn. Read-outs that look alike come from different tables or passages of the source.

Data set [1] is described as follows: Aqueous solubility determination (shake flask, UV). The note with it: thermodynamic from solid, phosphate buffer pH 7.0, 48 h stirring, filtered, UV, read-out: Solub. It is filed as physicochemical. The protocol: One of the expected effects of introducing nitrogen substitutions on combretastatin and isocombretastatin analogues, is an increase in aqueous solubility. Solubility was spectrophotometrically determined in phosphate buffer at pH 7. UV absorbance of soluble compounds was measured after shaking and microfiltration. […] In addition, aqueous solubilities of the corresponding ammonium salts are over 1 mg/mL.
This great improvement is probably due to the symmetry reduction, combined with an increased polarity for 2g.
Compounds were stirred in a solution of phosphate buffer at pH 7.0 (1–2 mg of compound in 300 µL of buffer) during 48 h. After that, the samples were filtered over a […] filter to discard the insoluble residues. In order to determine the maximum wavelength of absorbance for each compound, a scan between 270 and 400 nm was performed. Once the wavelength was selected, a calibration line was performed and the concentration of the stirred and filtered samples was measured.

The test system of data set [2] is HeLa cervix epithelioid carcinoma. Briefly: MTT cell antiproliferative assay, HeLa. Format: cell-based. The note with it: Homo sapiens, 72 h. The protocol: (§1) The in vitro antiproliferative activity of the synthesized compounds was evaluated by a colorimetric reaction, using the MTT reagent. They were tested against three different human tumor cell lines: HeLa cervix epithelioid carcinoma, HT-29 colon adenocarcinoma, and MCF-7 breast adenocarcinoma. […] Moving the alkylamino substituent from a para to a meta position with respect to the bridge results in potency reduction, except for the phenstatin analogue 1f. However, the introduction of a nitrogen atom to form 2-dimethylaminopyridine derivatives entails a loss of activity, both for phenstatin analogues (1b, 2b), while for isocombretastatins, it only involves a 2–3 times potency decrease (3b). For combretastatins, it implies an improvement in the cytotoxicity values down to tenths of nanomolar (8b). […] On the other hand, the best 2-dimethylaminopyridine was combretastatin 8b. All ammonium salts derivatives were not cytotoxic at micromolar concentrations.
(§2) HeLa (human cervical carcinoma) and MCF-7 (human breast carcinoma) cell lines were cultured in Dulbecco’s Modified Eagles Medium (DMEM) supplemented with 2 mM L-glutamine (Lonza-Cambrex, Karlskoga, Sweden), 10% (v/v) heat inactivated fetal bovine serum (HIFBS) (Lonza-Cambrex) and 100 μg/mL streptomycin-100 IU/mL penicillin (Lonza-Cambrex) at 37 °C in humidified 95% air and 5% CO2. HT-29 (human colon carcinoma) cells were cultured at 37 °C in complete RPMI 1640 medium containing 2 mM L-glutamine, 10% (v/v) HIFBS and 100 μg/mL streptomycin-100 IU/mL penicillin in humidified 95% air and 5% CO2 atmosphere.
(§3) The effect of the different compounds on the proliferation of human cell lines was determined by using the MTT (3-[4,5-dimethylthiazol-2-yl]-2,5-diphenyltetrazolium bromide) reagent (MTT Thiazolyl Blue Tetrazolium Bromide, Sigma-Aldrich, St. Louis, MO, USA) dissolved in PBS 5 mg/mL. Cell viability was evaluated seeding 100 µL of cells in exponential growth phase with appropriate cell line concentration (1.5 × 10^4 HeLa and MCF-7 cells/mL and 3 × 10^4 HT-29 cells/mL) in complete medium in 96-well plates at 37 °C and 5% CO2. After 24 h incubation to allow cells to attach to the plates the ligands were added at different concentrations from 10^−5 to 10^−9 M. The effect on the proliferation was evaluated 72 h post-treatment by adding the MTT reagent (10 µL/well) to a final concentration of 0.5 mg/mL and the plate was further incubated for another 3 h. After this period, the supernatant was removed, the MTT violet crystals formed on the bottom of each well were dissolved in DMSO (100 µL/well) and subsequently, the absorbance of the color complex was read at 570 nm using a multi-well plate reader. Compounds were dissolved in dimethyl sulfoxide (DMSO) and the final solvent concentrations never exceeded 0.5% (v/v). The control wells included treated cells with 0.5% (v/v) DMSO and the positive control. Measurements were performed in triplicate, and each experiment was repeated three times. […] Nonlinear curves fitting the experimental data were carried out for each compound.
In general terms: Tetrazolium dyes change colour on reduction, which living cells bring about.

In data set [3] the test system is MCF-7 breast adenocarcinoma. Briefly: MTT cell antiproliferative assay, MCF-7. Format: cell-based. The note with it: Homo sapiens, MCF7, 72 h. The protocol:
as §1, §2, §3

Data set [4] concerns Bovine brain microtubule protein (MTP). The data set is described as follows: Tubulin polymerization inhibition assay (turbidimetry). Format: biochemical. The note with it: 1.5 mg/mL MTP; IC50 calculated only if more than 50% inhibition at 20 µM; read-out: TPI IC50. The protocol: Bovine brain microtubule protein (MTP) was isolated as previously described. Briefly, it was purified according to the modified Shelanski method by two cycles of temperature-dependent assembly/disassembly.
Tubulin polymerization was monitored using a Helios α spectrophotometer by measuring the increase in turbidity at 450 nm, caused by a shift from 4 °C to 37 °C, which allows the in vitro MTP self-disassembly and assembly respectively. […] Firstly, ligands at 20 µM concentration, were incubated with 1.5 mg/mL MTP at 20 °C for 30 min and subsequently cooled on ice for 10 min. Then, the experiment starts at 4 °C to establish the initial baseline. The assembly process was initiated by shifting of the temperature to 37 °C and the turbidity produced can be measured by an absorbance increase. After reaching a stable plateau, the temperature was switched back to 4 °C to return to the initial absorption values. The difference in amplitude between the stable plateau and the initial baseline of the curves was taken as the degree of tubulin polymerization for each experiment. […] All the measurements were carried out in at least two independent experiments using MTP from different isolation.

Data set [5] has as its system HeLa, HT-29 and MCF-7 human tumor cell lines. The data set is described as follows: Antiproliferative activity over the three human tumor cell lines (MTT). It is filed as cell-based. The note with it: Homo sapiens, read-out: Cytotoxicity range (range of antiproliferative IC50 values). As to the method: as §1
The antiproliferative activity of the compounds against three human tumor cell lines of different origins (i.e., HeLa cervix epithelioid carcinoma, HT-29 colon adenocarcinoma and MCF-7 breast adenocarcinoma) was evaluated by the MTT method. […] This high success rate is the result of a combination of favorable scaffolds and substituents, and it is similar to those of previous reports on related series. […] We have previously observed the same trend for related compounds acting at the colchicine site of tubulin [10, 23]. For this pyridine series, we observed a different potency trend when we compare the 4-amino-3-pyridine and the 3-amino-4-pyridine derivatives. […] This different behavior is probably a reflection of their different shape, combined with the different geometries imposed by different bridges. We have previously shown that the potency ordering isocombretastatins similar to oximes higher than benzophenones could be explained by the higher conjugation of the ketones with the aromatic rings, which imposes a more planar disposition than those required for high affinity colchicine site binding. For the 3-amino-4-pyridine series, more planar structures are required in order to avoid the bumping of the amino substituents with tubulin out the plane of the aromatic ring, an effect which we have previously shown to impact the potency of 3-substituted indolecombretastatins and dimethylaminophenyl phenstatins. This different geometrical disposition of the amino substituents, and the different adaptability of their corresponding pockets in the two series, can also account for the preference of bulkier substituents at position 3, such as the pyrrolidine rather than the smaller dimethylamino. […] The opposite is observed for the 4-dimethylaminophenyl phenstatins 1a and 1b. […] The remarkable levels of solubility achieved for the quaternary ammonium salts came unfortunately at the expenses of biological activity.
The effect of the different compounds on the proliferation of human cell lines was determined by using the MTT (3-[4,5-dimethylthiazol-2-yl]-2,5-diphenyltetrazolium bromide) reagent (MTT Thiazolyl Blue Tetrazolium Bromide, Sigma-Aldrich, St. Louis, MO, USA) dissolved in PBS 5 mg/mL. Cell viability was evaluated seeding 100 µL of cells in exponential growth phase with appropriate cell line concentration (1.5 × 10^4 HeLa and MCF-7 cells/mL and 3 × 10^4 HT-29 cells/mL) in complete medium in 96-well plates at 37 °C and 5% CO2. After 24 h incubation to allow cells to attach to the plates the ligands were added at different concentrations from 10^−5 to 10^−9 M. The effect on the proliferation was evaluated 72 h post-treatment by adding the MTT reagent (10 µL/well) to a final concentration of 0.5 mg/mL and the plate was further incubated for another 3 h. […]

The mark [6] stands for this setting: phosphate buffer, pH 7, aqueous buffer.
[7] abbreviates: range over the cell lines, Table S1.

What is called IC50 is the point on the concentration scale where inhibition reaches its midpoint. For `COc1cc(C(=O)c2ccc(N(C)C)nc2)cc(OC)c1OC` [Compound 1b, (6-(Dimethylamino)pyridin-3-yl)(3,4,5-trimethoxyphenyl)methanone], the solubility at 48 h in data set [1] (setting [6]) turned out to be 10.5 µg/mL (≈ 33.2 µM). The IC50 in data set [2] was above 1000 nM; in data set [3] it was above 1000 nM; in data set [4], above 20000 nM; in data set [5] (setting [7]) it was above 1000 nM.

Take `COc1cc(C=Cc2ccnc(N3CCCC3)c2)cc(OC)c1OC` [Compound 8h, 2-(Pyrrolidin-1-yl)-4-(3,4,5-trimethoxystyryl)pyridine]: the solubility at 48 h in data set [1] (setting [6]) was 65 µg/mL (≈ 191 µM). The IC50 in data set [2] was above 1000 nM; in data set [3], above 1000 nM; in data set [4] it was above 20000 nM; in data set [5] (setting [7]) it was above 1000 nM.

On to `C=C(c1ccc([N+](C)(C)C)cc1)c1ccc(OC)c(OC)c1OC.[I-]` [Compound 7d, N,N,N-Trimethyl-4-(1-(2,3,4-trimethoxyphenyl)vinyl)benzenaminium iodide], for which the solubility at 48 h in data set [1] (setting [6]) stood at 1000 µg/mL. Also, the IC50 is above 1000 nM in data set [2]; above 1000 nM in data set [3]; above 20000 nM in data set [4]; above 1000 nM in data set [5] (range over the cell lines, Table S1, heading: Cytotoxicity range).

Regarding `C=C(c1cccc(N(C)C)c1)c1cc(OC)c(OC)c(OC)c1` [Compound 3f, N,N-Dimethyl-3-(1-(3,4,5-trimethoxyphenyl)vinyl)aniline], in data set [1] (aqueous buffer), the solubility at 48 h turned out to be 21 µg/mL (≈ 67 µM). Further, the IC50 was above 1000 nM in data set [2], above 1000 nM in data set [3], above 20000 nM in data set [4] and above 1000 nM in data set [5] (setting [7]).

In the case of `COc1cc(C(=NO)c2ccc([N+](C)(C)C)cc2)cc(OC)c1OC.[I-]` [Compound 6a, 4-((Hydroxyimino)(3,4,5-trimethoxyphenyl)methyl)-N,N,N-trimethylbenzenaminium iodide], the solubility at 48 h in data set [1] (aqueous buffer) stood at 1500 µg/mL. For the same compound, the IC50 in data set [2] is above 1000 nM; in data set [3] it was above 1000 nM; in data set [4], above 20000 nM.

For the compound `C=C(c1ccc([N+](C)(C)C)cc1)c1cc(OC)c(OC)c(OC)c1.[I-]` [Compound 7a, N,N,N-trimethyl-4-(1-(3,4,5-trimethoxyphenyl)vinyl)benzenaminium iodide], the solubility at 48 h in data set [1] (aqueous buffer) is 2500 µg/mL. In addition, the IC50 in data set [2] was above 1000 nM; in data set [3], above 1000 nM; in data set [4] it was above 20000 nM; in data set [5], above 1000 nM.

Regarding `COc1cc(C=Cc2ccc([N+](C)(C)C)nc2)cc(OC)c1OC.[I-]` [Compound 9b, N,N,N-trimethyl-5-(3,4,5-trimethoxystyryl)pyridin-2-aminium iodide], the solubility at 48 h in data set [1] (setting [6]) turned out to be 679 µg/mL. Besides, the IC50 in data set [2] was above 1000 nM; in data set [3], above 1000 nM; in data set [4], above 20000 nM.

`COc1ccc(OC)c(C(=O)c2ccc([N+](C)(C)C)cc2)c1.[I-]` [Compound 5e, 4-(2,5-Dimethoxybenzoyl)-N,N,N-trimethylbenzenaminium iodide]: the solubility at 48 h in data set [1] (setting [6]) is above 5000 µg/mL. Besides, the half-maximal inhibitory concentration (IC50) in data set [2] is above 1000 nM; in data set [3], above 1000 nM; in data set [4] it was above 20000 nM; in data set [5] (setting [7]) it was above 1000 nM.

In the case of `COc1cc(C=Cc2ccc([N+](C)(C)C)cc2)cc(OC)c1OC` [Compound 9a, N,N,N-trimethyl-4-(3,4,5-trimethoxystyryl)benzenaminium iodide], the IC50 in data set [2] was above 1000 nM; in data set [3], above 1000 nM; in data set [4], above 20000 nM; in data set [5] (setting [7]), above 1000 nM.

As to `COc1cc(C(C)c2cccc(N(C)C)c2)cc(OC)c1OC` (stereo not shown) [Compound 4f, N,N-Dimethyl-3-(1-(3,4,5-trimethoxyphenyl)ethyl)aniline], the IC50 was above 1000 nM in data set [2], above 1000 nM in data set [3], above 20000 nM in data set [4] and above 1000 nM in data set [5] (setting [7]).

As to `COc1cc(C(=NO)c2cccc(N(C)C)c2)cc(OC)c1OC` [Compound 2f, (3-(Dimethylamino)phenyl)(3,4,5-trimethoxyphenyl)methanone oxime], in data set [1] (setting [6]), the solubility at 48 h is 153 µg/mL (≈ 463 µM). The half-inhibitory concentration (IC50) is above 1000 nM in data set [2], above 1000 nM in data set [3] and above 20000 nM in data set [4].

Turning to `COc1ccc(C(=O)c2ccc([N+](C)(C)C)cc2)c(OC)c1OC.[I-]` [Compound 5d, N,N,N-Trimethyl-4-(2,3,4-trimethoxybenzoyl)benzenaminium iodide], the solubility at 48 h in data set [1] (setting [6]) came to 4400 µg/mL. In addition, the IC50 in data set [2] is above 1000 nM; in data set [3] it was above 1000 nM; in data set [4], above 20000 nM; in data set [5] (setting [7]) it was above 1000 nM.
